Experimental data taken from the NIST ThermoML archive (doi:10.1021/je3011979).
Numbers after ± are expanded uncertainties.

Columns and labels:
[1] = excess molar enthalpy (molar enthalpy of mixing); xn = mol fraction of the nth substance listed; details: 101 kPa, Liquid, Calvet calorimetry
[2] = xn = mol fraction of the nth substance listed; details: 101 kPa, Liquid, Vibrating tube method

CCCOC(C)=O [propyl ethanoate] + CCCCCC
Details	excess molar enthalpy [kcal/mol]	mass density [kg/m3]
[1], 291.15 K, x1 = 0.074	0.0657 ± 0.00143	–
[1], 291.15 K, x1 = 0.1514	0.13 ± 0.00167	–
[1], 291.15 K, x1 = 0.2307	0.179 ± 0.00191	–
[1], 291.15 K, x1 = 0.3056	0.2204 ± 0.00215	–
[1], 291.15 K, x1 = 0.3758	0.2481 ± 0.00215	–
[1], 291.15 K, x1 = 0.4417	0.2598 ± 0.00215	–
[1], 291.15 K, x1 = 0.4984	0.2651 ± 0.00215	–
[1], 291.15 K, x1 = 0.5492	0.2605 ± 0.00215	–
[1], 291.15 K, x1 = 0.5528	0.2598 ± 0.00215	–
[1], 291.15 K, x1 = 0.6101	0.2459 ± 0.00215	–
[1], 291.15 K, x1 = 0.6705	0.2275 ± 0.00215	–
[1], 291.15 K, x1 = 0.7361	0.1953 ± 0.00191	–
[1], 291.15 K, x1 = 0.8064	0.157 ± 0.00167	–
[1], 291.15 K, x1 = 0.8762	0.111 ± 0.00143	–
[1], 291.15 K, x1 = 0.9422	0.0588 ± 0.00143	–
[1], 298.15 K, x1 = 0.0319	0.0246 ± 0.00143	–
[1], 298.15 K, x1 = 0.0736	0.0648 ± 0.00143	–
[1], 298.15 K, x1 = 0.145	0.126 ± 0.00167	–
[1], 298.15 K, x1 = 0.2223	0.178 ± 0.00191	–
[1], 298.15 K, x1 = 0.3011	0.2225 ± 0.00215	–
[1], 298.15 K, x1 = 0.366	0.2481 ± 0.00215	–
[1], 298.15 K, x1 = 0.4223	0.2639 ± 0.00215	–
[1], 298.15 K, x1 = 0.503	0.2682 ± 0.00239	–
[1], 298.15 K, x1 = 0.559	0.2615 ± 0.00215	–
[1], 298.15 K, x1 = 0.6073	0.2495 ± 0.00215	–
[1], 298.15 K, x1 = 0.6518	0.234 ± 0.00215	–
[1], 298.15 K, x1 = 0.7091	0.2089 ± 0.00191	–
[1], 298.15 K, x1 = 0.7653	0.177 ± 0.00191	–
[1], 298.15 K, x1 = 0.8334	0.136 ± 0.00167	–
[1], 298.15 K, x1 = 0.8989	0.0899 ± 0.00143	–
[1], 298.15 K, x1 = 0.9494	0.0466 ± 0.00143	–
[1], 318.15 K, x1 = 0.0748	0.0691 ± 0.00143	–
[1], 318.15 K, x1 = 0.1298	0.122 ± 0.00167	–
[1], 318.15 K, x1 = 0.2004	0.176 ± 0.00191	–
[1], 318.15 K, x1 = 0.2777	0.2249 ± 0.00215	–
[1], 318.15 K, x1 = 0.3479	0.2529 ± 0.00215	–
[1], 318.15 K, x1 = 0.4119	0.2674 ± 0.00239	–
[1], 318.15 K, x1 = 0.4746	0.2739 ± 0.00239	–
[1], 318.15 K, x1 = 0.5084	0.2729 ± 0.00239	–
[1], 318.15 K, x1 = 0.5582	0.2694 ± 0.00239	–
[1], 318.15 K, x1 = 0.6039	0.2581 ± 0.00215	–
[1], 318.15 K, x1 = 0.6543	0.2419 ± 0.00215	–
[1], 318.15 K, x1 = 0.7123	0.2185 ± 0.00191	–
[1], 318.15 K, x1 = 0.7753	0.185 ± 0.00191	–
[1], 318.15 K, x1 = 0.8288	0.147 ± 0.00167	–
[1], 318.15 K, x1 = 0.8906	0.0997 ± 0.00143	–
[1], 318.15 K, x1 = 0.9452	0.0535 ± 0.00143	–
[2], 291.15 K, x1 = 0.012	–	663.4 ± 0.3
[2], 291.15 K, x1 = 0.0372	–	668 ± 0.3
[2], 291.15 K, x1 = 0.0924	–	678.5 ± 0.3
[2], 291.15 K, x1 = 0.1648	–	692.7 ± 0.3
[2], 291.15 K, x1 = 0.2357	–	707 ± 0.3
[2], 291.15 K, x1 = 0.3085	–	722.2 ± 0.3
[2], 291.15 K, x1 = 0.3804	–	737.7 ± 0.3
[2], 291.15 K, x1 = 0.442	–	751.4 ± 0.3
[2], 291.15 K, x1 = 0.5117	–	767.2 ± 0.3
[2], 291.15 K, x1 = 0.5781	–	782.6 ± 0.3
[2], 291.15 K, x1 = 0.64	–	797.3 ± 0.3
[2], 291.15 K, x1 = 0.702	–	812.3 ± 0.3
[2], 291.15 K, x1 = 0.7697	–	829.1 ± 0.4
[2], 291.15 K, x1 = 0.8208	–	842.2 ± 0.4
[2], 291.15 K, x1 = 0.8835	–	858.4 ± 0.4
[2], 291.15 K, x1 = 0.9247	–	869.3 ± 0.4
[2], 291.15 K, x1 = 1	–	889.6 ± 0.2
[2], 298.15 K, x1 = 0.0175	–	658 ± 0.3
[2], 298.15 K, x1 = 0.035	–	661.2 ± 0.3
[2], 298.15 K, x1 = 0.0831	–	670.3 ± 0.3
[2], 298.15 K, x1 = 0.1535	–	683.9 ± 0.3
[2], 298.15 K, x1 = 0.2218	–	697.6 ± 0.3
[2], 298.15 K, x1 = 0.2836	–	710.3 ± 0.3
[2], 298.15 K, x1 = 0.3539	–	724.9 ± 0.3
[2], 298.15 K, x1 = 0.4197	–	739.4 ± 0.3
[2], 298.15 K, x1 = 0.4795	–	752.7 ± 0.3
[2], 298.15 K, x1 = 0.5417	–	766.9 ± 0.3
[2], 298.15 K, x1 = 0.604	–	781.5 ± 0.3
[2], 298.15 K, x1 = 0.6583	–	794.5 ± 0.3
[2], 298.15 K, x1 = 0.7242	–	810.6 ± 0.3
[2], 298.15 K, x1 = 0.7772	–	823.9 ± 0.4
[2], 298.15 K, x1 = 0.8357	–	838.9 ± 0.4
[2], 298.15 K, x1 = 0.8934	–	853.9 ± 0.4
[2], 298.15 K, x1 = 0.9187	–	860.5 ± 0.4
[2], 298.15 K, x1 = 0.9749	–	875.7 ± 0.4
[2], 298.15 K, x1 = 1	–	882.5 ± 0.2
[2], 318.15 K, x1 = 0.0304	–	641.7 ± 0.3
[2], 318.15 K, x1 = 0.0796	–	650.7 ± 0.3
[2], 318.15 K, x1 = 0.1381	–	661.7 ± 0.3
[2], 318.15 K, x1 = 0.2079	–	675.3 ± 0.3
[2], 318.15 K, x1 = 0.2642	–	686.6 ± 0.3
[2], 318.15 K, x1 = 0.3318	–	700.5 ± 0.3
[2], 318.15 K, x1 = 0.3997	–	714.9 ± 0.3
[2], 318.15 K, x1 = 0.4505	–	725.9 ± 0.3
[2], 318.15 K, x1 = 0.5124	–	739.7 ± 0.3
[2], 318.15 K, x1 = 0.5708	–	752.9 ± 0.3
[2], 318.15 K, x1 = 0.622	–	764.8 ± 0.3
[2], 318.15 K, x1 = 0.6815	–	778.9 ± 0.3
[2], 318.15 K, x1 = 0.7426	–	793.7 ± 0.3
[2], 318.15 K, x1 = 0.7992	–	807.7 ± 0.4
[2], 318.15 K, x1 = 0.8648	–	824.4 ± 0.4
[2], 318.15 K, x1 = 0.9227	–	839.3 ± 0.4
[2], 318.15 K, x1 = 1	–	859.8 ± 0.2
[2], 328.15 K, x1 = 0.0253	–	631.3 ± 0.3
[2], 328.15 K, x1 = 0.0749	–	640.2 ± 0.3
[2], 328.15 K, x1 = 0.1369	–	651.6 ± 0.3
[2], 328.15 K, x1 = 0.2052	–	664.7 ± 0.3
[2], 328.15 K, x1 = 0.2719	–	677.8 ± 0.3
[2], 328.15 K, x1 = 0.3322	–	690.1 ± 0.3
[2], 328.15 K, x1 = 0.3986	–	704 ± 0.3
[2], 328.15 K, x1 = 0.4614	–	717.6 ± 0.3
[2], 328.15 K, x1 = 0.5209	–	730.7 ± 0.3
[2], 328.15 K, x1 = 0.5809	–	744.3 ± 0.3
[2], 328.15 K, x1 = 0.62	–	753.3 ± 0.3
[2], 328.15 K, x1 = 0.6944	–	770.8 ± 0.3
[2], 328.15 K, x1 = 0.7605	–	786.8 ± 0.3
[2], 328.15 K, x1 = 0.8114	–	799.4 ± 0.4
[2], 328.15 K, x1 = 0.8707	–	814.4 ± 0.4
[2], 328.15 K, x1 = 0.9235	–	828 ± 0.4
[2], 328.15 K, x1 = 1	–	848.3 ± 0.2
